Measured values reported in Sander's compilation of Henry's law constants.

Assay: Henry solubility constant Hcp at 298.15 K (mol/(m3 Pa))
[1] = reference: Fichan et al. (1999)
[2] = reference: Schuhfried et al. (2015)
[3] = reference: Mabury and Crosby (1996)
[4] = reference: Bakierowska and Trzeszczyński (2003)
[5] = reference: Buttery et al. (1971)
[6] = reference: Copolovici and Niinemets (2005)
[7] = reference: Bernauer and Dohnal (2008)
[8] = reference: Kawamoto and Urano (1989)
[9] = reference: Souchon et al. (2004)
[10] = reference: Mackay et al. (1979)
[11] = reference: Warner et al. (1980)

In the case of `C=CC(=C)CCC=C(C)C` [7-methyl-3-methylene-1,6-octadiene], the “Henry solubility constant Hcp” value [1] is reported as 0.00087 and the “Henry solubility constant Hcp” value [2] is reported as 0.00036.

With `CC(C)(C)OC=O` [(1,1-dimethylethyl)-methanoate] the “Henry solubility constant Hcp” value (reference: Arp and Schmidt (2004)) was 0.014.

In the case of `CC1(C)[C@H]2CC[C@](C)(C2)[C@H]1O` [(1R)-1,3,3-trimethylbicyclo[2.2.1]heptan-2-ol], the “Henry solubility constant Hcp” value [1] is reported as 0.36.

For `Cc1cc(Cl)ccc1OCC(=O)O` [(2-methyl-4-chlorophenoxy)acetic acid], the “Henry solubility constant Hcp” value [3] was greater than 99.

With `C/C=C/CCl` [(E)-1-chloro-2-butene] the “Henry solubility constant Hcp” value [4] was 0.0031.

In the case of `CCCCCC/C=C/C=O` [(E)-2-nonenal], the “Henry solubility constant Hcp” value (reference: Roberts and Pollien (1997)) is reported as 0.058.

For `CCCCC/C=C/C=O` [(E)-2-octenal], the “Henry solubility constant Hcp” value [5] was 0.13.

For `C/C=C/C(=O)C1=C(C)C=CCC1(C)C` [(E)-β-damascenone], the “Henry solubility constant Hcp” value (reference: Wieland et al. (2015)) was 0.32.

For `C/C=C/C=C/C=O` [(E,E)-2,4-hexadienal], the “Henry solubility constant Hcp” value [5] was 1.

For `C=C(C)[C@H]1CC=C(C)CC1` [(R)-1-methyl-4-(1-methylethenyl)-cyclohexene], the “Henry solubility constant Hcp” value [6] was 0.00035 and the “Henry solubility constant Hcp” value [2] was 0.00038.

With `CC1=CC[C@H](C(C)C)C=C1` [(R)-(−)-α-phellandrene] the “Henry solubility constant Hcp” value [2] was 0.00034.

In the case of `C=C(C)[C@@H]1CC=C(C)CC1` [(S)-1-methyl-4-(1-methylethenyl)-cyclohexene], the “Henry solubility constant Hcp” value [6] is reported as 0.00035 and the “Henry solubility constant Hcp” value [2] is reported as 0.00037.

With `C/C=C\CCl` [(Z)-1-chloro-2-butene] the “Henry solubility constant Hcp” value [4] was 0.0012.

In the case of `CC/C=C\CCC=O` [(Z)-4-heptenal], the “Henry solubility constant Hcp” value (reference: Straver and de Loos (2005)) is reported as 0.088.

In the case of `CN1CCN(C)CC1` [N,N'-dimethylpiperazine], the “Henry solubility constant Hcp” value (reference: Nguyen (2013)) is reported as 200.

With `CN(Cl)Cl` [N,N-dichloromethylamine] the “Henry solubility constant Hcp” value (reference: Cimetiere and de Laat (2009)) was 0.0033.

For `OCCN1CCNCC1` [N-(2-hydroxyethyl)piperazine], the “Henry solubility constant Hcp” value (reference: Nguyen (2013)) was 2900.

In the case of `CC(=O)N1CCCC1` [N-acetylpyrrolidine], the “Henry solubility constant Hcp” value (reference: Gibbs et al. (1991)) is reported as 6200.

For `CCCCNC(C)=O` [N-butylacetamide], the “Henry solubility constant Hcp” value (reference: Gibbs et al. (1991)) was 2700.

In the case of `CNCCCN` [N-methyl-1,3-propanediamine], the “Henry solubility constant Hcp” value (reference: Kim et al. (2008)) is reported as 2100 and the “Henry solubility constant Hcp” value (reference: Nguyen (2013)) is reported as 1400.

With `CN1CCCC1=O` [N-methyl-2-pyrrolidone] the “Henry solubility constant Hcp” value (reference: Bernauer and Dohnal (2009)) was 2100 and the “Henry solubility constant Hcp” value (reference: Kim et al. (2000)) was 3100.

With `CNC(C)=O` [N-methylacetamide] the “Henry solubility constant Hcp” value [7] was 3200.

For `CN(CCO)CCO` [N-methyldiethanolamine], the “Henry solubility constant Hcp” value (reference: Kim et al. (2008)) was 400000 and the “Henry solubility constant Hcp” value (reference: Nguyen (2013)) was 3900.

With `CNC=O` [N-methylmethanamide] the “Henry solubility constant Hcp” value [7] was 1500.

For `CN1CCNCC1` [N-methylpiperazine], the “Henry solubility constant Hcp” value (reference: Nguyen (2013)) was 1800.

For `CCN(CC)N=O` [N-nitrosodiethylamine], the “Henry solubility constant Hcp” value (reference: Klein (1982)) was 5.6 and the “Henry solubility constant Hcp” value (reference: Thompson et al. (2018)) was 0.012.

In the case of `CCN(CC)C(=O)SCc1ccc(Cl)cc1` [S-(4-chlorobenzyl) diethylthiocarbamate], the “Henry solubility constant Hcp” value [8] is reported as 4.9.

With `CCCN(CCC)C(=O)SCC` [S-ethyl dipropylthiocarbamate] the “Henry solubility constant Hcp” value (reference: Breiter et al. (1998)) was 0.038 and the “Henry solubility constant Hcp” value (reference: Reyes-Pérez et al. (2008)) was 0.56.

For `CCCC(=O)SC` [S-methyl butanethioate], the “Henry solubility constant Hcp” value [9] was 0.026.

For `c1cc2c3c(cccc3c1)CC2` [acenaphthene], the “Henry solubility constant Hcp” value [10] was 0.068 and the “Henry solubility constant Hcp” value [11] was 0.041.

With `C1=Cc2cccc3cccc1c23` [acenaphthylene] the “Henry solubility constant Hcp” value [11] was 0.087.

For `ClC1=C(Cl)[C@]2(Cl)[C@H]3[C@H]([C@@H]4C=C[C@H]3C4)[C@@]1(Cl)C2(Cl)Cl` [aldrin], the “Henry solubility constant Hcp” value [11] was 0.02.

With `C=CCN=C=S` [allyl isothiocyanate] the “Henry solubility constant Hcp” value [9] was 0.021.

In the case of `C=CCSC` [allyl methyl sulfide], the “Henry solubility constant Hcp” value (reference: Schuhfried et al. (2011)) is reported as 0.0042.

In the case of `c1ccc2cc3ccccc3cc2c1` [anthracene], the “Henry solubility constant Hcp” value (reference: Alaee et al. (1996)) is reported as 0.2, the “Henry solubility constant Hcp” value (reference: Bamford et al. (1999b)) is reported as 0.15 and the “Henry solubility constant Hcp” value (reference: Reza and Trejo (2004)) is reported as 0.23. For the same molecule, the “Henry solubility constant Hcp” value (reference: Southworth (1979)) was 0.15 and the “Henry solubility constant Hcp” value (reference: Webster et al. (1985)) was 0.27.

In the case of `[Ar]` [argon], the “Henry solubility constant Hcp” value (reference: Ashton et al. (1968)) is reported as 1.4e-05, the “Henry solubility constant Hcp” value (reference: Cosgrove and Walkley (1981)) is reported as 1.4e-05 and the “Henry solubility constant Hcp” value (reference: Crovetto et al. (1982)) is reported as 1.4e-05. The “Henry solubility constant Hcp” value (reference: Friedman (1954)) was 1.4e-05, the “Henry solubility constant Hcp” value (reference: Krause and Benson (1989)) was 1.4e-05 and the “Henry solubility constant Hcp” value (reference: Lannung (1930)) was 1.4e-05. For the same molecule, the “Henry solubility constant Hcp” value (reference: Morrison and Johnstone (1954)) was 1.3e-05, the “Henry solubility constant Hcp” value (reference: Murray and Riley (1970)) was 1.4e-05 and the “Henry solubility constant Hcp” value (reference: Park et al. (1982)) was 1.4e-05. For the same molecule, the “Henry solubility constant Hcp” value (reference: Potter II and Clynne (1978)) was 1.4e-05, the “Henry solubility constant Hcp” value (reference: Rettich et al. (1992)) was 1.4e-05 and the “Henry solubility constant Hcp” value (reference: Shoor et al. (1969)) was 1.4e-05. The “Henry solubility constant Hcp” value (reference: Winkler (1906)) was 1.5e-05 and the “Henry solubility constant Hcp” value (reference: von Antropoff (1910)) was 1.6e-05.

For `O=Cc1ccccc1` [benzaldehyde], the “Henry solubility constant Hcp” value (reference: Allen et al. (1998)) was 0.35, the “Henry solubility constant Hcp” value (reference: Allou et al. (2011)) was 0.32 and the “Henry solubility constant Hcp” value [9] was 0.34.

For `[2H]c1c([2H])c([2H])c([2H])c([2H])c1[2H]` [benzene-d6], the “Henry solubility constant Hcp” value (reference: Wasik and Tsang (1970)) was 0.0016.

For `O=C(O)c1ccccc1` [benzenecarboxylic acid], the “Henry solubility constant Hcp” value (reference: Li et al. (2007)) was 290.

In the case of `N#Cc1ccccc1` [benzenenitrile], the “Henry solubility constant Hcp” value (reference: Lee et al. (2013)) is reported as 0.29.

For `c1ccc(-c2ccccc2)cc1` [biphenyl], the “Henry solubility constant Hcp” value [10] was 0.024.

With `CC(CCl)OC(C)CCl` (configuration not stated) [bis-(2-chloroisopropyl) ether] the “Henry solubility constant Hcp” value [8] was 0.42.

In the case of `O=C(O)CBr` [bromoethanoic acid], the “Henry solubility constant Hcp” value (reference: Bowden et al. (1998a)) is reported as 1500.

In the case of `CCCC=O` [butanal], the “Henry solubility constant Hcp” value (reference: Buttery et al. (1965)) is reported as 0.064 and the “Henry solubility constant Hcp” value (reference: Ji and Evans (2007)) is reported as 0.089.

For `CCCC` [butane], the “Henry solubility constant Hcp” value (reference: Ben-Naim and Battino (1985)) was 1.2e-05, the “Henry solubility constant Hcp” value (reference: Carroll et al. (1997)) was 1.3e-05 and the “Henry solubility constant Hcp” value (reference: McAuliffe (1963)) was 1.1e-05. The “Henry solubility constant Hcp” value (reference: Morrison and Billett (1952)) was 1.1e-05 and the “Henry solubility constant Hcp” value (reference: Wetlaufer et al. (1964)) was 1.3e-05.

For `COC(=O)CCC(=O)OC` [butanedioic acid, dimethyl ester], the “Henry solubility constant Hcp” value (reference: Katrib et al. (2003)) was 30.

In the case of `CCCCOC(C)=O` [butyl ethanoate], the “Henry solubility constant Hcp” value (reference: Fenclová et al. (2014)) is reported as 0.035, the “Henry solubility constant Hcp” value (reference: Ioffe et al. (1984)) is reported as 0.035 and the “Henry solubility constant Hcp” value (reference: Kieckbusch and King (1979b)) is reported as 0.035.

In the case of `CCCCOC=O` [butyl methanoate], the “Henry solubility constant Hcp” value (reference: Wittig et al. (2001)) is reported as 0.019.

For `CCCCc1ccccc1` [butylbenzene], the “Henry solubility constant Hcp” value (reference: Perlinger et al. (1993)) was 0.00062.

With `c1ccc2c(c1)[nH]c1ccccc12` [carbazole] the “Henry solubility constant Hcp” value (reference: Odabasi et al. (2006)) was 93.

With `CNC(=O)Oc1cccc2c1OC(C)(C)C2` [carbofuran] the “Henry solubility constant Hcp” value [3] was greater than 99.

With `S=C=S` [carbon disulfide] the “Henry solubility constant Hcp” value (reference: De Bruyn et al. (1995b)) was 0.00054 and the “Henry solubility constant Hcp” value (reference: Elliott (1989)) was 0.00062.

With `O=C=C=C=O` [carbon suboxide] the “Henry solubility constant Hcp” value (reference: Keßel et al. (2017)) was 0.011.

For `COC(=O)OC` [carbonic acid, dimethyl ester], the “Henry solubility constant Hcp” value (reference: Böhme et al. (2008)) was 0.16.

For `NCl` [chloramine], the “Henry solubility constant Hcp” value (reference: Holzwarth et al. (1984)) was 0.92.

In the case of `[O][Cl+][O-]` [chlorine dioxide], the “Henry solubility constant Hcp” value (reference: Bigorgne (1947)) is reported as 0.0066, the “Henry solubility constant Hcp” value (reference: Holst (1944)) is reported as 0.0097 and the “Henry solubility constant Hcp” value (reference: Ishi (1958)) is reported as 0.011. The “Henry solubility constant Hcp” value (reference: Kepinski and Trzeszczynski (1964)) was 0.01 and the “Henry solubility constant Hcp” value (reference: Taube and Dodgen (1949)) was 0.01.

With `ClC1CCCCC1` [chlorocyclohexane] the “Henry solubility constant Hcp” value [4] was 0.0028.
